Results on four compounds are retold here after patent US20060093617A1, “Peptides for inducing a CTL and/or HTL response to hepatitis C virus” (Innogenetics, N.V., priority 2004, published 2006).

For one assay, the target named is T1, HLA-A03 (Homo sapiens, UniProt P04439).
T1 construct: endogenous in cells
Description: Competition binding assay using soluble HLA class I. To be noted: HLA-A1101 section; read-out: binds A0301 (asterisk in Ki column).

In another assay the target is T2, DRB1*0401 (Homo sapiens, UniProt P01903+P01911, A100K/A169T/F76Y/I96L/K127E/L162R/M171V/N62H/P40V/Q125Y/R42H/S133A/S149N/S66Y/V115G/V209L/W38E).
T2 construct: endogenous in cells; host or cells: cell lysate
Description: Competition binding assay using soluble HLA class II. The following applies: HLA-DRB1*0401; individual experiment or mean of several.

A further assay concerns the target T3, DRB1*0301 (Homo sapiens, UniProt P01903+P01911, A100K/A102G/A103R/A169T/F55Y/I96L/K41T/L162R/M171V/P40S/Q125H/Q178H/Q39Y/R42S/S66N/T106N/T262R/W38E/Y61H).
T3 construct: endogenous in cells; HLA-DR was extracted from cell lysates on an LB3.1 antibody column
The description is as above.

A further assay addresses T4, DRB1*0101 (Homo sapiens, UniProt P01903+P01911, A100R/D57E/F55L/F60I/F76Y/I96L/L162R/M171V/P40L/Q125E/R42F/V115G/Y59C).
T4 construct: endogenous in cells; host or cells: cell lysate
The assay is described as above.

A further assay addresses B*3501 (Homo sapiens, UniProt P01889, A329T/A93T/A95T/C349S/D201E/D98Y/E176V/E187L/E204Q/E69T/I218V/K202T/L119I/Q94N/R155S/R180L/S121R/S35A/S48A/T118I/V127L/V306I/V36M/Y140S/Y91F). The assay is described as follows: Competition binding assay using soluble HLA class I. To be noted: Table 18, HLA-B7 binding peptides.
In the next assay the target is T5, B*0702 (Homo sapiens, UniProt P01889).
T5 construct: endogenous in cells
The assay is described as above.

Where a SMILES comes first, the peptide text is derived from it.

In general, Ki refers to a dissociation constant, usually derived from enzyme kinetics or from competition with a known ligand. Regarding `CC(C)C[C@H](NC(=O)[C@@H](N)Cc1ccc(O)cc1)C(=O)N[C@@H](CC(C)C)C(=O)N1CCC[C@H]1C(=O)N[C@@H](CCCNC(=N)N)C(=O)N[C@@H](CCCNC(=N)N)C(=O)NCC(=O)N1CCC[C@H]1C(=O)N[C@@H](CCCNC(=N)N)C(=O)O` (H-YLLPRRGPR-OH), the Ki on HLA-A03 was < 1 µM.

For orientation: IC50 means the concentration needed to halve the response being measured. A lower IC50 goes with inhibition by little substance. With `CC(C)C[C@H](NC(=O)[C@@H](NC(=O)[C@@H](NC(=O)[C@@H](N)CC(C)C)C(C)C)C(C)C)C(=O)N[C@@H](C)C(=O)N[C@H](C(=O)N[C@@H](C)C(=O)N[C@H](C(=O)N1CCC[C@H]1C(=O)N1CCC[C@H]1C(=O)NCC(=O)N[C@@H](CO)C(=O)N[C@H](C(=O)N[C@H](C(=O)N[C@H](C(=O)O)C(C)C)[C@@H](C)O)C(C)C)[C@@H](C)O)[C@@H](C)O` (H-LVVLATATPPGSVTV-OH; N-terminus and C-terminus assumed), the results for the IC50 on DRB1*0401, at DRB1*0301 and on DRB1*0101 were 0.004 µM, 4.23 µM and 0.073 µM, respectively.

Turning to `CC(C)C[C@H](NC(=O)[C@H](CCCNC(=N)N)NC(=O)[C@@H](NC(=O)[C@H](CO)NC(=O)[C@@H](NC(=O)[C@H](CCC(=O)O)NC(=O)[C@H](C)NC(=O)[C@@H]1CCCN1C(=O)[C@@H](N)[C@@H](C)O)[C@@H](C)O)C(C)C)C(=O)O`, the results for the IC50 at B*3501 and on B*0702 were 1640 nM and 0.375 µM, respectively. For the same compound, the Ki is 375 nM on B*0702 (Ki (nM), HLA-B0702 section) and < 1000 nM at B*0702 (binds B0702 with Ki < 1000 nM (asterisk), asterisk in the HLA-B3501 section).

For the compound `CC[C@H](C)[C@H](NC(=O)[C@@H]1CCCN1C(=O)[C@H](CCC(N)=O)NC(=O)[C@@H](N)CCCNC(=N)N)C(=O)N1CCC[C@H]1C(=O)N[C@@H](CCCCN)C(=O)N[C@@H](C)C(=O)N[C@@H](CCCNC(=N)N)C(=O)N[C@@H](CCCNC(=N)N)C(=O)O` (H-RQPIPKARR-OH), the Ki on HLA-A03 was < 1 µM.
